Data taken from PMC12177781, “Chalcogen Derivatives for the Treatment of African Trypanosomiasis: Biological Evaluation of Thio- and Seleno-Semicarbazones and Their Azole Derivatives” (ACS Omega, 2025).
Read-outs that look alike come from different tables or passages of the source.

Assays:
[1] = DPPH radical scavenging (antioxidant) assay; details: after 2 h, mean ± SEM
[2] = system: T. brucei brucei Lister 427; experiment: T. b. brucei Lister 427 bloodstream-form growth inhibition, SYBR Green viability assay, 72 h; assay type: cell-based, Trypanosoma brucei brucei
HEK293 cells = experiment: HEK293 cytotoxicity, CellTiter-Glo, 48 h; details: for inhibition at 10 µM: Homo sapiens, HEK293, read-out: HEK293 inhibition (%); for HEK293 inhibition (%): growth inhibition at 10 µM, ± SD
[3] = molecular target: T. brucei cathepsin L-like protease (TbrCATL) (Trypanosoma brucei rhodesiense, UniProt Q95PM0); experiment: TbrCATL inhibition assay, Z-FR-AMC substrate; assay type: biochemical; details: for SI TbrCATL: IC50 hCatL/IC50 TbrCATL; for IC50: mean ± SD, two experiments in triplicate (n = 6)
Experimental: (§1) All experiments were performed in a 384-well black microplate, using a Synergy HTX (Biotek) plate reader at 25 °C with absorption/emission wavelengths of 360/460 nm. Assays were performed in triplicate wells and DMSO was used as a vehicle control. Enzyme activity was measured and normalized to DMSO controls, and the inhibitor E-64 (10 μM) was used as a positive control for all assays. Experiments were performed in triplicate, with at least two independent assays (n = 6 data points). IC50 values were determined through nonlinear regression. The data obtained were analyzed using GraphPad Prism 9.0 (GraphPad Software, La Jolla, California, US).
The screening assay was performed using 0.5 nM of TbrCATL diluted in 0.1 M sodium acetate, 1 mM dithiothreitol (DTT), and 0.01% Triton X-100, pH 5.5. TbrCATL was expressed and purified as described. Enzyme the compound (10 μM), were incubated for 10 min at room temperature. Then the substrate, Z-Phe-Arg-amidomethylcoumarin (Z-FR-AMC; Sigma-Aldrich, C9521), was added (30 μL diluted in the same assay buffer) to yield a final concentration of 2.5 μM and the assay allowed to proceed for 10 min. […] For those compounds inhibiting enzyme activity by >85%, DR assays were performed over 15 2-fold serial dilutions starting at 0.5 or 20 μM.

HepG2 cells = experiment: HepG2 cytotoxicity, CellTiter-Glo, 48 h; details: for inhibition at 10 µM: Homo sapiens, HepG2, read-out: HepG2 inhibition (%); for HepG2 inhibition (%): growth inhibition at 10 µM, ± SD
[4] = molecular target: T1, human cathepsin L (hCatL) (Homo sapiens, UniProt P07711); experiment: hCatL inhibition assay, Z-FR-AMC substrate; assay type: biochemical; details: mean ± SD, two experiments in triplicate (n = 6)
T1 construct: purchased R&D Systems 952-CY
Experimental: as §1
Recombinant hCatL was purchased from R&D Systems (952-CY) and activated according to the manufacturers protocol. This enzyme, hCatL, is used to test compounds’ selectivity because it is the human homologue of TbrCATL. The assay was modified from, using 25 pM of the enzyme diluted in 40 mM sodium acetate, 5 mM DTT, 100 mM NaCl, 1 mM EDTA and 0.01% Triton X-100, pH 5.5. Enzyme and compound (10 μM), were incubated for 30 min at room temperature. Then Z-FR-AMC was added (30 μL diluted in the same assay buffer) to yield a final concentration of 25 μM and the assay allowed to proceed for 10 min. DR assays were performed over 15 2-fold serial dilutions starting at 0.5 or 20 μM.

in vitro [5] = details: human, CC50 HEK293 (μM)
in vitro [6] = details: human, CC50 HepG2 (μM)
C2C12 cells = details: read-out: Toxicity CC50 C2C12 cells; cited from earlier work
[7] = at 10 μM, read-out: TbrCATL inhibition (%)
[8] = Trypanosoma brucei, growth inhibition at 10 µM, ± SD
[9] = growth inhibition at 10 µM, ± SD
[10] = read-out: TbrCATL inhibition (%), at 10 μM
[11] = Trypanosoma brucei, three independent experiments in duplicate (n = 6) ± SD, read-out: EC50 T. brucei
[12] = growth inhibition at 10 µM, ± SD, 10 µM

T1 sequence (P07711 114-333): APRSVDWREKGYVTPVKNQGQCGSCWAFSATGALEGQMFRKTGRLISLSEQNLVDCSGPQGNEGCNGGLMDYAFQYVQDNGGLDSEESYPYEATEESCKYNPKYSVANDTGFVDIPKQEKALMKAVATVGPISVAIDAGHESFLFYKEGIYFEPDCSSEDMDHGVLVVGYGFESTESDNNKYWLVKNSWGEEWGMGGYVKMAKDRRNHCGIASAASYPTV
T. brucei cathepsin L-like protease (TbrCATL), sequence (Q95PM0 1-450): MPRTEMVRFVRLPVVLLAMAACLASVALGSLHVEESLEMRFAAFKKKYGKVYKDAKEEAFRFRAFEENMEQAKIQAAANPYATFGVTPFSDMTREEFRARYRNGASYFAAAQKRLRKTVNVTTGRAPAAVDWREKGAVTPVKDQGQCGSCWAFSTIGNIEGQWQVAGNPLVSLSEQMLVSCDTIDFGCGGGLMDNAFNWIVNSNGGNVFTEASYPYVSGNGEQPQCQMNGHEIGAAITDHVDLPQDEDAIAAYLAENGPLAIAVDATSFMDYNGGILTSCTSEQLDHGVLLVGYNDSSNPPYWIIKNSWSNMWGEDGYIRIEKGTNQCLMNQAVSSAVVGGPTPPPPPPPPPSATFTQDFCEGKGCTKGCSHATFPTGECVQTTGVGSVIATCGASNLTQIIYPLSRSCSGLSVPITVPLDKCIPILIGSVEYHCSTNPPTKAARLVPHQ

Structure (SMILES)	% inhibited DPPH ([1]; 0.015 mg/ml)	% inhibited DPPH ([1]; 0.03 mg/ml)	% inhibited DPPH ([1]; 0.06 mg/ml)	inhibition at 10 µM (HEK293 cells)	inhibition at 10 µM [2, 8]	inhibition at 10 µM (HepG2 cells)	IC50 [4]	SI TbrCATL [3]	TbrCATL inhibition (%) ([3]; at 10 μM)	inhibition at 10 µM [3, 10]	other results
O=C1O[C@H]([C@@H](O)CO)C(O)=C1O [ASC, ascorbic acid, reference compound]	76.00 ± 3.52%	80.33 ± 0.33%	80.33 ± 0.67%								
N=C(N)c1ccc(OCCCCCOc2ccc(C(=N)N)cc2)cc1 [Pentamidine, reference compound]											inhibition at 10 µM ([2]; Trypanosoma brucei): 100 ± 2%; EC50 ([2]; Trypanosoma brucei, read-out: EC50 T. brucei (μM)): 0.014 ± 0.002 µM
C/C(=N\Nc1nc(C)cs1)c1ccc(C)cc1 [SC1]	55.00 ± 1.53%	54.33 ± 1.86%	60.00 ± 4.16%	24 ± 7%	30 ± 6%	4 ± 15%					inhibition at 10 µM [3, 7]: 32.9%
COc1ccc(C(C)=NNc2nc(C)cs2)cc1.Cl [SC2]											HEK293 inhibition (%) (HEK293 cells): 33 ± 8%; T. brucei inhibition (%) [2, 9]: 27 ± 5%; HepG2 inhibition (%) (HepG2 cells): 6 ± 3%
C/C(=N\Nc1nc(C)cs1)c1ccc(Br)cc1 [SC3]	68.00 ± 3.06%	69.33 ± 2.33%	67.00 ± 2.31%	64 ± 2%	38 ± 9%	46 ± 7%					inhibition at 10 µM [3, 7]: 54%
C/C(=N\Nc1nc(C)cs1)c1cccc([N+](=O)[O-])c1 [SC5]	66.33 ± 1.86%	68.67 ± 2.03%	66.67 ± 1.86%	30 ± 3%	40 ± 8%	17 ± 2%	4.07 ± 0.383 µM	49	87.70%	> 85%	IC50 ([3]; read-out: IC50 TbrCATL): 82.6 ± 4.05 nM
C/C(=N\Nc1nc(C)cs1)C12CC3CC(CC(C3)C1)C2.Cl [SC11]											HEK293 inhibition (%) (HEK293 cells): 39 ± 3%; T. brucei inhibition (%) [2, 9]: 19 ± 8%; HepG2 inhibition (%) (HepG2 cells): 0 ± 13%
C/C(=N\NC(N)=S)c1ccc(C)cc1 [SO1]			45.00 ± 8.33%	30 ± 3%	44 ± 7%	50 ± 4%					inhibition at 10 µM [3, 7]: 80%
C/C(=N\NC(N)=S)c1ccc(Br)cc1 [SO3]			29.33 ± 24.77%	76 ± 2%	28 ± 4%	65 ± 4%	0.136 ± 0.0199 µM	19	95.54%	> 85%	IC50 ([3]; read-out: IC50 TbrCATL): 7.33 ± 0.27 nM
C/C(=N\NC(N)=S)c1cccc([N+](=O)[O-])c1 [SO5]			23.33 ± 19.46%	14 ± 9%	31 ± 5%	39 ± 9%	0.0207 ± 0.00436 µM	4	100.00%	> 85%	IC50 ([3]; read-out: IC50 TbrCATL): 5.83 ± 0.35 nM
C/C(=N\Nc1nc(C)c[se]1)c1ccc(C)cc1 [SeC1]	71.67 ± 2.85%	71.67 ± 2.40%	72.33 ± 2.33%	77 ± 2%	72 ± 6%	65 ± 9%			51.07%		TbrCATL inhibition (%) ([3]; at 10 μM, listed as Se C1, 10 µM): ≤ 85%; EC50 [2, 11]: 9.8 ± 0.63 µM; T. brucei inhibition (%) [2, 12]: > 70%; CC50 (in vitro [5]): 12 ± 4.94 µM; CC50 (in vitro [6]): 11 ± 0.88 µM
C/C(=N\Nc1nc(C)c[se]1)c1ccc(Br)cc1 [SeC3]	35.00 ± 18.82%	71.00 ± 3.06%	75.67 ± 1.45%	88 ± 3%		80 ± 2%	0.793 ± 0.0665 µM	4	101.02%	> 85%	IC50 ([3]; IC50 TbrCATL (nM)): 201.7 ± 0.92 nM; EC50 [2, 11]: 6.04 ± 0.72 µM; T. brucei inhibition (%) [2, 12]: 99 ± 2%; T. brucei inhibition (%) ([2]; growth inhibition at 10 µM, ± SD, listed as Se C3, 10 µM): > 70%; CC50 (in vitro [5]): 5.9 ± 1.22 µM; CC50 (C2C12 cells): > 10 µM; CC50 (in vitro [6]): 4.68 ± 0.14 µM
C/C(=N\Nc1nc(C)c[se]1)C12CC3CC(CC(C3)C1)C2 [SeC11]											HEK293 inhibition (%) (HEK293 cells): 64 ± 10%; T. brucei inhibition (%) [2, 9]: 37 ± 0%; HepG2 inhibition (%) (HepG2 cells): 66 ± 2%
C/C(=N\NC(N)=[Se])c1ccc(C)cc1 [SeO1]	45.67 ± 9.56%	78.00 ± 1.16%	77.33 ± 1.76%	100 ± 1%		80 ± 1%	0.0845 ± 0.017 µM	5	97.08%	> 85%	IC50 ([3]; IC50 TbrCATL (nM)): 17.9 ± 3.62 nM; EC50 [2, 11]: 0.98 ± 0.12 µM; T. brucei inhibition (%) [2, 12]: 100 ± 1%; T. brucei inhibition (%) ([2]; growth inhibition at 10 µM, ± SD, listed as Se O1, 10 µM): > 70%; CC50 (in vitro [5]): 4.27 ± 0.22 µM; CC50 (in vitro [6]): 4.17 ± 0.6 µM
C/C(=N\NC(N)=[Se])C12CC3CC(CC(C3)C1)C2 [SeO11]											HEK293 inhibition (%) (HEK293 cells): 100 ± 4%; CC50 (HEK293 cells; read-out: CC50 HEK293, three independent experiments in duplicate): 10.5 ± 0.36 µM; T. brucei inhibition (%) [2, 12]: 100 ± 1%; T. brucei inhibition (%) ([2]; growth inhibition at 10 µM, ± SD, listed as Se O11, 10 µM): > 70%; EC50 ([2]; three independent experiments in duplicate (n = 6) ± SD, read-out: EC50 T. brucei): 5.16 ± 1.06 µM; HepG2 inhibition (%) (HepG2 cells): 66 ± 5%; CC50 (HepG2 cells; read-out: CC50 HepG2, three independent experiments in duplicate): 6.01 ± 0.69 µM
Cc1c(C)c2c(c(C)c1O)CCC(C)(C(=O)O)O2 (stereo not shown) [TRO, Trolox, reference compound]	79.33 ± 1.33%	79.33 ± 0.882%	79.67 ± 0.67%								
